One experiment has as its target T1, Cbl-b (Homo sapiens, UniProt Q13191).
T1 construct: biotin (biotinylated protein)
The experiment in a line: Cbl-b probe displacement HTRF binding assay. The conditions noted are these: 0.4 nM Cbl-b, 150 nM BODIPY probe. The essentials:
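Compound competes with BODIPY probe (150 nM) for biotinylated Cbl-b (0.4 nM) in HEPES/NaCl/Triton/TCEP/BSA buffer; 60 min preincubation, 15 min with probe, room temperature. Tb-streptavidin HTRF read; % displacement vs DMSO and no-protein controls, IC50 from four-parameter fit.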
(Time-resolved FRET reads energy transfer from a long-lived donor to a nearby acceptor.)

For a further experiment, the system named is Jurkat cells. As to the kind of experiment: IL-2 secretion assay in Jurkat cells activated with CD3/CD28 T Cell Activator. Type of experiment: cell-based. Particulars: Homo sapiens; Jurkat cells, CD3/CD28 T Cell Activator, 24 h, IL-2 AlphaLISA; read-out: IL-2 Secretion (EC50). The procedure, abridged: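 Jurkat cells in Opti-MEM were preincubated 1 h at 37° C with compound (final 10 μM to 300 pM, 16-point 1:2 dilution), then activated with human CD3/CD28 T Cell Activator for 24 h at 37° C. Supernatant IL-2 measured by AlphaLISA; EC50 from 4-parameter logistic fit.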
Background: Alpha assays give light when donor and acceptor beads are brought close together.

SMILES strings stand for the structures.

What is called IC50 is the midpoint of a concentration-inhibition curve. The low end stands for higher potency, the high end for lower potency. The EC50 is the concentration needed to bring the measured effect to its halfway point.

T1 sequence (Q13191 whole entry, species assumed): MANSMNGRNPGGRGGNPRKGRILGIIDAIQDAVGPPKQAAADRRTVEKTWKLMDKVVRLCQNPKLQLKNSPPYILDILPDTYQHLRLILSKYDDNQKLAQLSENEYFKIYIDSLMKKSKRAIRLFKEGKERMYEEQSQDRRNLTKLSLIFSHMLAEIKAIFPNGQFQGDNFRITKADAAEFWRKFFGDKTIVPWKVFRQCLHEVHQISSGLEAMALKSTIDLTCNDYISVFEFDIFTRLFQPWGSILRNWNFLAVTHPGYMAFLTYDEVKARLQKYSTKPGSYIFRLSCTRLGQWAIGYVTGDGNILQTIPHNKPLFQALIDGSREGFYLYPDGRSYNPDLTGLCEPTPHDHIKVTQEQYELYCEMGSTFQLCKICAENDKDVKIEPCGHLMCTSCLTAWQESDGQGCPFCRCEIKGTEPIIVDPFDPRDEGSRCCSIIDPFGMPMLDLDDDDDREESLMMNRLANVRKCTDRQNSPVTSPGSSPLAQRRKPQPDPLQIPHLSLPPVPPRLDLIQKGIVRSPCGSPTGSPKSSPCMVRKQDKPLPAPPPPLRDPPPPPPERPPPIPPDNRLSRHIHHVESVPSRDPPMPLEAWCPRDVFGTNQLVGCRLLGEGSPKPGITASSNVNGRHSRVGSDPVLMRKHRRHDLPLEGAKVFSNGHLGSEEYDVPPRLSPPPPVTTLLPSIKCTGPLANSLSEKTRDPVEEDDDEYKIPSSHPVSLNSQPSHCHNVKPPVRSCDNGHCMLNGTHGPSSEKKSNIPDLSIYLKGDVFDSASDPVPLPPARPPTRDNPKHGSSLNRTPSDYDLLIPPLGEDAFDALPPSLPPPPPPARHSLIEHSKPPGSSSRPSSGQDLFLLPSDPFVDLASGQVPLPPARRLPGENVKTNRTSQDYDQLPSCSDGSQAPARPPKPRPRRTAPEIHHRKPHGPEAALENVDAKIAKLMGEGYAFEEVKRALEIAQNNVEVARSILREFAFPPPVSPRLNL

`C[C@H]1CCCN(Cc2cc(C(=O)Nc3cccc(C4(c5nncn5C)CC(F)(F)C4)c3)c(=O)n(C3CC3)c2)C1` [Example 79, 1-cyclopropyl-N-[3-[3,3-difluoro-1-(4-methyl-1,2,4-triazol-3-yl)cyclobutyl]phenyl]-5-[[(3S)-3-methylpiperidin-1-yl]methyl]-2-oxopyridine-3-carboxamide] came in with a half-inhibitory concentration (IC50) on Cbl-b of 100 to 1000 nM. Further, the EC50 in the experiment on Jurkat cells was in the range of 100 to 1000 nM.

With `Cn1ccnc1-c1cc(C#N)ccc1-c1cc(NC(=O)c2cc(CN3CCC4(CC4)C3)cn(C3CC3)c2=O)nc(C2CC2)c1` [Example 41, N-{4-[4-cyano-2-(1-methyl-2-imidazolyl)phenyl]-6-cyclopropyl-2-pyridyl}-5-{(5-aza-5-spiro[2.4]heptyl)methyl}-1-cyclopropyl-2-oxo-1,2-dihydronicotinamide], the half-maximal inhibitory concentration (IC50) on Cbl-b was below 100 nM. In addition, the EC50 with Jurkat cells fell in the range of 100 to 1000 nM.

Compound `CO[C@@H](C)CNCc1cc(C(=O)Nc2cc(-c3c(F)cc(Cl)cc3C(=O)N3CC(F)(F)C3)cc(C3CC3)n2)c(=O)n(C2CC2)c1` [Example 102, N-[4-[4-chloro-2-(3,3-difluoroazetidine-1-carbonyl)-6-fluorophenyl]-6-cyclopropylpyridin-2-yl]-1-cyclopropyl-5-[[[(2S)-2-methoxypropyl]amino]methyl]-2-oxopyridine-3-carboxamide] returned an IC50 at Cbl-b below 100 nM. For the same compound, in the experiment with Jurkat cells, the concentration giving a half-maximal response (EC50) was below 100 nM.

As for `COCCNCc1cc(C(=O)Nc2cc(-c3ccc(F)cc3C(=O)N3CC(F)(F)C3)cc(C3CC3)c2)c(=O)n(C2CC2)c1` [Example 69, N-{5-cyclopropyl-2′-[(3,3-difluoro-1-azetidinyl)carbonyl]-4′-fluoro-3-biphenylyl}-1-cyclopropyl-5-[(2-methoxyethylamino)methyl]-2-oxo-1,2-dihydronicotinamide], on Cbl-b, the IC50 was below 100 nM. The concentration giving a half-maximal response (EC50) in the experiment with Jurkat cells is 100 to 1000 nM.

In the case of `CO[C@@H](C)CNCc1cc(C(=O)Nc2cc(-c3ccc(Cl)cc3C(=O)N3CC(F)(F)C3)cc(C3CC3)n2)c(=O)n(C)c1` [Example 105, N-[4-[4-chloro-2-(3,3-difluoroazetidine-1-carbonyl)phenyl]-6-cyclopropylpyridin-2-yl]-5-[[[(2S)-2-methoxypropyl]amino]methyl]-1-methyl-2-oxopyridine-3-carboxamide], the concentration for half-maximal inhibition (IC50) at Cbl-b is below 100 nM. Further, the concentration for a half-maximal effect (EC50) with Jurkat cells is below 100 nM.

In the case of `CO[C@H]1C[C@@](c2cccc(NC(=O)c3cc(CN4CCC[C@H](C)C4)cn(C4CC4)c3=O)c2)(c2nncn2C)C1` [Example 80, 1-cyclopropyl-N-[3-[3-methoxy-1-(4-methyl-1,2,4-triazol-3-yl)cyclobutyl]phenyl]-5-[[(3S)-3-methylpiperidin-1-yl]methyl]-2-oxopyridine-3-carboxamide], the IC50 on Cbl-b lay in the range of 100 to 1000 nM. Moreover, the EC50 with Jurkat cells fell in the range of 100 to 1000 nM.

`C[C@H]1CCCN(Cc2cc(C(=O)Nc3cc(-c4ccc(C#N)cc4-c4nccn4C)cc(C4CC4)n3)c(=O)n(C3CC3)c2)C1` [Example 43, N-{4-[4-cyano-2-(1-methyl-2-imidazolyl)phenyl]-6-cyclopropyl-2-pyridyl}-5-{[(S)-3-methyl-1-piperidyl]methyl}-1-cyclopropyl-2-oxo-1,2-dihydronicotinamide] displayed a half-inhibitory concentration (IC50) on Cbl-b below 100 nM. In the experiment with Jurkat cells, the concentration giving a half-maximal response (EC50) was below 100 nM.

Compound `CC1CC(c2cccc(NC(=O)c3cc(CN4CCC[C@H](C)C4)cn(C4CC4)c3=O)c2)(c2nncn2C)C1` (mixture of isomers) [Example 76, 1-cyclopropyl-N-[3-[3-methyl-1-(4-methyl-1,2,4-triazol-3-yl)cyclobutyl]phenyl]-5-[[(3S)-3-methylpiperidin-1-yl]methyl]-2-oxopyridine-3-carboxamide] returned a concentration for half-maximal inhibition (IC50) at Cbl-b below 100 nM. Further, the 50% effective concentration (EC50) in the experiment with Jurkat cells is below 100 nM.

In turn, `N#Cc1ccc(-c2cc(NC(=O)c3cc(CN4C[C@H]5CC[C@@H]4C5)cn(C4CC4)c3=O)nc(C3CC3)c2)c(-c2nncn2C(F)F)c1` [Example 11, N-(4-{4-cyano-2-[4-(difluoromethyl)-4H-1,2,4-triazol-3-yl]phenyl}-6-cyclopropyl-2-pyridyl)-5-({(1R,4S)-2-azabicyclo[2.2.1]hept-2-yl}methyl)-1-cyclopropyl-2-oxo-1,2-dihydronicotinamide] had an IC50 on Cbl-b below 100 nM. For the same compound, in the experiment with Jurkat cells, the EC50 is 100 to 1000 nM.

On Cbl-b, `C[C@H]1CCCN(Cc2cc(C(=O)Nc3cc(-c4ccc(F)cc4-c4nncn4C)cc(C4CC4)n3)c(=O)n(CC3CCC3)c2)C1` [Example 62, 1-(cyclobutylmethyl)-N-[6-cyclopropyl-4-[4-fluoro-2-(4-methyl-1,2,4-triazol-3-yl)phenyl]pyridin-2-yl]-5-[[(3S)-3-methylpiperidin-1-yl]methyl]-2-oxopyridine-3-carboxamide] displayed an IC50 below 100 nM. For the same compound, in the experiment with Jurkat cells, the EC50 is below 100 nM.

For the compound `C=CCn1cc(CN(C)C)cc(C(=O)Nc2cc(-c3ccc(F)cc3-c3nncn3C)cc(C3CC3)n2)c1=O` [Example 34, N-{6-Cyclopropyl-4-[4-fluoro-2-(4-methyl-4H-1,2,4-triazol-3-yl)phenyl]-2-pyridyl}-1-allyl-5-[(dimethylamino)methyl]-2-oxo-1,2-dihydronicotinamide], the IC50 at Cbl-b was below 100 nM. For the same compound, the concentration for a half-maximal effect (EC50) in the experiment on Jurkat cells fell in the range of 1000 to 5000 nM.

With `N#Cc1ccc(-c2cc(NC(=O)c3cc(CNCCOC(F)(F)F)cn(C4CC4)c3=O)nc(C3CC3)c2)c(-c2nncn2C(F)F)c1` [Example 9, N-(4-{4-cyano-2-[4-(difluoromethyl)-4H-1,2,4-triazol-3-yl]phenyl}-6-cyclopropyl-2-pyridyl)-1-cyclopropyl-2-oxo-5-[(2-trifluoromethoxyethylamino)methyl]-1,2-dihydronicotinamide], the IC50 at Cbl-b is below 100 nM. The EC50 with Jurkat cells was below 100 nM.

Regarding `COCCNCc1cc(C(=O)Nc2cc(-c3ccc(C#N)cc3-c3nc(C#N)cn3C)cc(C3CC3)n2)c(=O)n(CC2CC2)c1` [Example 63, N-{4-[4-cyano-2-(4-cyano-1-methyl-2-imidazolyl)phenyl]-6-cyclopropyl-2-pyridyl}-1-(cyclopropylmethyl)-5-[(2-methoxyethylamino)methyl]-2-oxo-1,2-dihydronicotinamide], the IC50 on Cbl-b was below 100 nM. For the same compound, the EC50 in the experiment with Jurkat cells was in the range of 100 to 1000 nM.

`CO[C@H]1CCCN(Cc2cc(C(=O)Nc3cc(-c4ccc(F)cc4-c4nncn4C)cc(C4CC4)n3)c(=O)n(C3CC3)c2)C1` [Example 25, N-{6-cyclopropyl-4-[4-fluoro-2-(4-methyl-4H-1,2,4-triazol-3-yl)phenyl]-2-pyridyl}-5-{[(S)-3-methoxy-1-piperidyl]methyl}-1-cyclopropyl-2-oxo-1,2-dihydronicotinamide] yielded a half-maximal inhibitory concentration (IC50) on Cbl-b below 100 nM. Moreover, in the experiment on Jurkat cells, the EC50 was 100 to 1000 nM.

In the case of `Cn1ccnc1-c1cc(C#N)ccc1-c1cc(NC(=O)c2cc(CNCCOC(F)(F)F)cn(C3CC3)c2=O)nc(C2CC2)c1` [Example 40, N-{4-[4-cyano-2-(1-methyl-2-imidazolyl)phenyl]-6-cyclopropyl-2-pyridyl}-1-cyclopropyl-2-oxo-5-[(2-trifluoromethoxyethylamino)methyl]-1,2-dihydronicotinamide], the half-maximal inhibitory concentration (IC50) on Cbl-b is below 100 nM. In addition, the EC50 in the experiment with Jurkat cells is 100 to 1000 nM.

For `COCCNCc1cc(C(=O)Nc2cc(-c3ccc(C#N)cc3-c3nccn3C)cc(C3CC3)n2)c(=O)n(C2CC2)c1` [Example 42, N-{4-[4-cyano-2-(1-methyl-2-imidazolyl)phenyl]-6-cyclopropyl-2-pyridyl}-1-cyclopropyl-5-[(2-methoxyethylamino)methyl]-2-oxo-1,2-dihydronicotinamide], on Cbl-b, the IC50 is below 100 nM. The 50% effective concentration (EC50) in the experiment with Jurkat cells is below 100 nM.

The compound `Cn1cnnc1-c1cc(F)ccc1-c1cc(NC(=O)c2cc(-c3cc[nH]n3)cn(C3CC3)c2=O)nc(C2CC2)c1` [Example 27, N-{6-Cyclopropyl-4-[4-fluoro-2-(4-methyl-4H-1,2,4-triazol-3-yl)phenyl]-2-pyridyl}-1-cyclopropyl-2-oxo-5-(3-pyrazolyl)-1,2-dihydronicotinamide] yielded a 50% inhibitory concentration (IC50) on Cbl-b of 100 to 1000 nM. Further, the concentration giving a half-maximal response (EC50) with Jurkat cells is above 5000 nM.

`COC[C@@H](C)NCc1cc(C(=O)Nc2cc(-c3ccc(F)cc3-c3nncn3C)cc(C3CC3)n2)c(=O)n(C2CC2)c1` [Example 21, N-{6-cyclopropyl-4-[4-fluoro-2-(4-methyl-4H-1,2,4-triazol-3-yl)phenyl]-2-pyridyl}-5-{[(R)-2-methoxy-1-methylethylamino]methyl}-1-cyclopropyl-2-oxo-1,2-dihydronicotinamide] returned an IC50 at Cbl-b below 100 nM. Further, in the experiment with Jurkat cells, the EC50 was below 100 nM.

In turn, `CO[C@@H](C)[C@H](C)NCc1cc(C(=O)Nc2cc(-c3ccc(F)cc3-c3nncn3C)cc(C3CC3)n2)c(=O)n(C2CC2)c1` [Example 23, N-{6-cyclopropyl-4-[4-fluoro-2-(4-methyl-4H-1,2,4-triazol-3-yl)phenyl]-2-pyridyl}-5-{[(1S,2S)-2-methoxy-1-methylpropylamino]methyl}-1-cyclopropyl-2-oxo-1,2-dihydronicotinamide] showed an IC50 on Cbl-b below 100 nM. In addition, the half-maximal effective concentration (EC50) with Jurkat cells is below 100 nM.

For the compound `CC1CC(c2cccc(NC(=O)c3cc(CN4CCC[C@H](C)C4)cn(CC4CC4)c3=O)c2)(c2nncn2C)C1` (mixture of isomers) [Example 78, 1-(cyclopropylmethyl)-N-[3-[3-methyl-1-(4-methyl-1,2,4-triazol-3-yl)cyclobutyl]phenyl]-5-[[(3S)-3-methylpiperidin-1-yl]methyl]-2-oxopyridine-3-carboxamide], the IC50 on Cbl-b was below 100 nM. In the experiment with Jurkat cells, the EC50 lay in the range of 100 to 1000 nM.

The record behind these values is patent US20260116868A1 (Arcus Biosciences, Inc., priority 2023, published 2026).
